Reference: patent US6831199B1, “Pyrimidine compounds and derivatives thereof” (G. D. Searle & Co., priority 1995, dated 2004)
Where a name gives a salt, the structure may show the parent alone.

Tests used:
[1] = biological target: T1, Human fibrinogen receptor (αIIbβ3) (Homo sapiens, UniProt P05106+P08514); assay: Purified IIb/IIIa receptor assay (solid phase receptor assay, competition with biotinylated vitronectin); format: binding; details: read-out: IIb/IIIa IC50
T1 construct: Human fibrinogen receptor (αIIbβ3) was purified from outdated platelets; from tissue; host or cells: outdated human platelets
Method in brief: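 Competition format: 1 nM biotinylated vitronectin plus test compound (highest 1.0×10^−4 M), 2 h at room temperature on wells coated with platelet-derived αIIbβ3. Buffer was TBS containing 1.0 mM Ca, Mg, Mn, pH 7.4. HRP anti-biotin readout at 450 nm; normalized to maximum binding, four-parameter curve fit.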

[2] = biological target: T2, Human vitronectin receptor (αvβ3) (Homo sapiens, UniProt P05106+P06756); assay: Vitronectin adhesion assay (solid phase receptor assay, competition with biotinylated vitronectin); format: binding; details: read-out: AvB3 IC50
T2 construct: Human vitronectin receptor (αvβ3) was purified from human placenta; from tissue; host or cells: human placenta
Method in brief: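 Purified human αvβ3 coated overnight at 4 °C in TBS with 1.0 mM Ca++, Mg++, Mn++, pH 7.4; compounds (top final 1.0×10^−4 M) competed with 1 nM biotinylated vitronectin for 2 h at room temperature. Bound ligand detected by HRP anti-biotin/OPD at A450; values normalized to no-competitor controls, four-parameter curve fit.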

IC50 [1] [nM] | IC50 [2] [nM] | Structure (SMILES)
1540 | 0.35 | CC1(C)CN=C(Nc2cccc(C(=O)NCC(=O)NC(CC(=O)O)c3cc(Cl)cc(Cl)c3)c2)NC1 (racemic) [Example 367, (±)3,5-dichloro-β-[[2-[[[3-[(1,4,5,6-tetrahydro-5,5-dimethylpyrimidin-2-yl)amino]phenyl]carbonyl]amino]acetyl]amino]benzenepropanoic acid, trifluoroacetate salt]
124 | 0.76 | N=C(N)Nc1cccc(C(=O)NCC(=O)NC(CC(=O)O)c2ccc(Cl)s2)c1 (stereo not drawn) [251(C), β-[[2-[[[3-[(aminoiminomethyl)amino]phenyl]carbonyl]amino]acetyl]amino]-5-chlorothiophene-2-propanoic acid, trifluoroacetate salt]
72000 | 303 | N=C(N)Nc1cccc(C(=O)NC2(C(=O)NC(CC(=O)O)c3cccnc3)CC2)c1 (stereo not drawn) [Example 19, β-[[1-[[[3-[(aminoiminomethyl)amino]phenyl]carbonyl]amino]cycloprop-1-yl]carbonyl]amino]pyridine-3-propanoic acid, bis(trifluoroacetate)salt]
5740 | 162 | C#C[C@H](CC(=O)OCC)NC(=O)CNC(=O)c1cccc(NC(=N)N)c1 [Example 58, ethyl 3S-[[2-[[[3-[(aminoiminomethyl)amino]phenyl)carbonyl]amino]acetyl]amino]-4-pentynoate, trifluoroacetate salt]
353 | 334 | CC(NC(=O)c1cccc(NC(=N)N)c1)C(=O)NC(CC(=O)O)c1cccnc1 (stereo not drawn) [Example 82, β-[[2-[[[3-[(aminoiminomethyl)amino]phenyl]carbonyl]amino]-1-oxopropyl]amino]pyridine-3-propanoic acid, bis(trifluoroacetate)salt]
246 | 2800 | Cc1ccc(C(=O)NCC(=O)NC(CC(=O)O)c2cccnc2)cc1N (stereo not drawn) [Example 84, β-[[2-[[(3-amino-4-methylphenyl)carbonyl]amino]acetyl]amino]pyridine-3-propanoic acid, bis(trifluoroacetate)salt]
5400 | 1810 | CCOC(=O)CCNC(=O)CNC(=O)c1cccc(NC(=N)N)c1 [Example 96, N-[2-[[[3-[(aminoiminomethyl)amino]phenyl]carbonyl]amino]acetyl]-β-alanine, ethyl ester]
> 100000 | 8560 | CCOC(=O)CC(NC(=O)CNC(=O)c1cccc(NC2=NCCS2)c1)c1cccnc1 (stereo not drawn) [Example 100, ethyl β-[[2-[[[3-[(4,5-dihydrothiazol-2-yl)amino]phenyl]carbonyl]amino]acetyl]amino]pyridine-3-propanoate, trifluoroacetate salt]
65700 | 1680 | O=C(O)CC(NC(=O)CNC(=O)c1cccc(NC2=NCCS2)c1)c1cccnc1 (stereo not drawn) [Example 101, β-[[2-[[[3-[(4,5-dihydrothiazol-2-yl)amino]phenyl]carbonyl]amino]acetyl]amino]pyridine-3-propanoic acid, trifluoroacetate salt]
18700 | 6400 | CCOC(=O)CC(NC(=O)CNC(=O)c1cccc(NC(=O)Nc2ccccc2)c1)c1cccnc1 (stereo not drawn) [Example 107, ethyl β-[[2-[[[3-[[(phenylamino]carbonyl]amino]phenyl]carbonyl]amino]acetyl]amino]-pyridine-3-propanoate]
> 100000 | 575 | CCOC(=O)CC(NC(=O)CNC(=O)c1cccc(NC(N)=O)c1)c1cccnc1 (stereo not drawn) [Example 109, ethyl β-[[2-[[[3-(aminocarbonylamino]phenyl]carbonyl]amino]acetylamino]pyridine-3-propanoate, trifluoroacetate salt]
6340 | 284 | Cc1ccc(S(=O)(=O)NC(=O)Nc2cccc(C(=O)NCC(=O)NC(CC(=O)O)c3cccnc3)c2)cc1 (stereo not drawn) [Example 112, β-[[2-[[[3-[[[[(4-methylphenyl)sulfonyl]amino]carbonyl]amino]phenyl]carbonyl]amino]acetyl]amino]pyridine-3-propanoic acid, trifluoroacetate salt]
≥ 100000 | 276 | CCOC(=O)CC(NC(=O)CNC(=O)c1cccc(NC(N)=S)c1)c1cccnc1 (stereo not drawn) [Example 113, ethyl β-[[2-[[[3-[(aminothioxomethyl)amino]phenyl]carbonyl]amino]acetyl]amino]pyridine-3-propanoate, trifluoroacetate salt]
> 100000 | 15500 | CCOC(=O)CC(NC(=O)CNC(=O)c1cccc(NC(N)=S)c1)c1ccccc1 (stereo not drawn) [Example 116, ethyl β-[[2-[[[3-[(aminothioxomethyl)amino]phenyl]carbonyl]amino]acetyl]amino]benzenepropanoate]
> 100000 | 2840 | CCOC(=O)CC(NC(=O)CNC(=O)c1cccc(NC(=O)NCc2ccccc2)c1)c1ccc2c(c1)OCO2 (stereo not drawn) [Example 121, ethyl β-[[2-[[[3-[[[(phenylmethyl)amino]carbonyl]amino]phenyl]carbonyl]amino]acetyl]amino]-1,3-benzodioxole-5-propanoate]
85500 | 11800 | CCOC(=O)CC(NC(=O)CNC(=O)c1cccc(NC(=O)Nc2ccccc2)c1)c1ccc2c(c1)OCO2 (stereo not drawn) [Example 123, ethyl β-[[2-[[[3-3-[[(phenylamino)carbonyl]amino]phenyl]carbonyl]amino]acetyl]amino]-1,3-benzodioxole-5-propanoate]
> 100000 | 50700 | CCN/C(=N\C#N)Nc1cccc(C(=O)NCC(=O)NC(CC(=O)OCC)c2ccccc2)c1 (stereo not drawn) [Example 135, ethyl β-[[2-[[[3-[[(cyanoimino)(ethylamino)methyl]amino]phenyl]carbonyl]amino]acetyl]amino]benzenepropanoate]
> 100000 | 6700 | CCOC(=O)CC(NC(=O)CNC(=O)c1cccc(N/C(=N/C#N)NCc2ccccn2)c1)c1ccccc1 (stereo not drawn) [Example 143, ethyl β-[[2-[[[3-[[(cyanoimino)[2-pyridinylmethyl)amino]methyl]amino]phenyl]carbonyl]amino]acetyl]amino]benzenepropanoate, trifluoroacetate salt]
> 100000 | 2720 | CCOC(=O)CC(NC(=O)CNC(=O)c1cccc(N/C(=N\C#N)NCc2cccnc2)c1)c1ccccc1 (stereo not drawn) [Example 145, ethyl β-[[2-[[[3-[[(cyanoimino)[3-pyridinylmethyl)amino]methyl]amino]phenyl]carbonyl]amino]acetyl]amino]benzenepropanoate, trifluoroacetate salt]
547 | 10.1 | C#C[C@H](CC(=O)O)NC(=O)CNC(=O)c1cccc(N/C(=N\C#N)NCc2ccc(S(N)(=O)=O)cc2)c1 [Example 158, 3S-[[2-[[[3-[[[[(4-(aminosulfonyl)phenylmethyl]amino](cyanoimino)methyl]amino]phenyl]carbonyl]amino]acetyl]amino]-4-pentynoic acid, trifluoroacetate salt, monohydrate]
10400 | 25.6 | N#C/N=C(/N)Nc1cccc(C(=O)NCC(=O)NC(CC(=O)O)c2cc(Cl)cc(Cl)c2)c1 (stereo not drawn) [Example 160, β-[[2-[[[3-[[amino(cyanoimino)methyl]amino]phenyl]carbonyl]amino]acetyl]amino]-3,5-dichlorobenzenepropanoic acid]
